Data from patent US8962322B2, “Enhancers of induced pluripotent stem cell reprogramming” (City of Hope, priority 2012, dated 2015).

What was measured:
[1] = system: mouse embryonic fibroblasts (MEFs); experiment: iPSC derivation from 4F (OSKM)-transduced MEFs in mouse ESC media; type: cell-based
Method: The generation of iPSCs is a gradual process with relatively low efficiency. Since Oct4 is central to the reprogramming process (35, 36, 38), it was hypothesized that compounds that activate Oct4 transcription may facilitate iPSC generation by enhancing reprogramming efficiency. Reprogramming of mouse embryonic fibroblasts (MEFs) was performed with the 4F reprogramming quartet Oct4, Sox2, Klf4, and c-Myc, along with solvent control, OAC1 or its structural analogs OAC2 and OAC3. The same number of starting MEFs and the same viral stocks were used for each treatment. Two days after viral transduction, the 4F-transduced cells were seeded onto feeder cells in mouse ESC culture media, and this day was designated as day 0 (FIG. 2D). Compound treatment started on day 0 and lasted for 7 days. By counting the number of clones with ESC-like morphology at day 18, both OAC1 and its analogs OAC2 and OAC3 enhanced the 4F-induced reprogramming efficiency considerably. The number of colonies with ESC-like morphology (FIG. 2E) increased 2-fold or more in 4F plus OAC (4F+OAC) treatment, compared to the 4F treatment alone (FIG. 2F, Table 3).
iPSC Derivation in Mouse ESC Media: OG2/R26MEFs were seeded onto […] at the density of 4×10^4 cells per well in DMEM medium with 10% FBS, 0.1 mM non-essential amino acids (NEAA), and 0.1 mM L-glutamine, 24 hr before transduction. Freshly concentrated viruses of the four factors, Oct4, Sox2, c-Myc, and Klf4, were added to the cells. Two days after viral infection, the viral-transduced OG2/R26MEFs were split into new 6-well plates with irradiated MEF feeder cells and cultured in mouse ESC culture medium containing 15% ESC qualified FBS, 2 mM L-glutamine, 0.1 mM 2-mercaptoethanol, 0.1 mM NEAA, 1 mM sodium pyruvate and 1000 U/ml of leukemia inhibitory factor (LIF), and this day was defined as day 0. 1 μM of each compound (OAC1, OAC2, and OAC3) was added to the 4F-transduced cells at day 0 and treatment was continued for 1 week. When iPSC colonies emerged, these colonies were picked for expansion on irradiated MEF feeders in mouse ESC medium.

OG2 MEFs = experiment: iPSC derivation from 4F (OSKM)-transduced OG2 MEFs in iSF1 media (Oct4-GFP colonies); type: cell-based, mouse
Method: Recently, a serum-free media (iSF1) was developed to facilitate the generation of mouse iPSCs (39). The effect of compound OAC1 in the 4F-induced reprogramming was tested in iSF1 media. OG2 MEFs, derived from transgenic mice expressing the Oct4 promoter-driven GFP reporter (Oct4-GFP) (40), were transduced with retroviruses expressing the 4F reprogramming factors, Oct4, Sox2, Klf4, and c-Myc. The 4F-transduced cells were transferred to iSF1 media two days after viral transduction and this day was designated as day 0 (FIG. 3A). Treatment of compound OAC1 started on day 1 and lasted for 7 days. […] At day 5, a more than 3-fold increase in the number of GFP-positive colonies was detected in OAC1-treated, 4F-transduced cells (4F+OAC1), compared to vehicle-treated, 4F-transduced cells (FIG. 3B, C). […] The number of GFP-positive colonies in 4F-treated cells at day 8 (average of 200) was less than the number of GFP-positive colonies in 4F+OAC1-treated cells at day 5 (average of 350) (FIG. 3B, C).
iPSC Derivation in iSF1 Media: OG2 MEFs were seeded onto 6-well plates at the density of 3×10^4 cells per well in DMEM medium with 10% FBS, 0.1 mM NEAA, and 0.1 mM L-glutamine, 24 hr before transduction. Freshly prepared viruses of the 4F, Oct4, Sox2, c-Myc, and Klf4, were added to the cells. Two days after viral infection, the transduced OG2 MEFs were split into new 6-well plates with irradiated MEF feeders and cultured in iSF1 reprogramming media containing high glucose DMEM, 10% knockout serum, 0.5% N2, 5 ng/ml b-FGF, 2 mM L-glutamine, 0.1 mM 2-mercaptoethanol, 0.1 mM NEAA and 1000 U/ml of LIF. This day was defined as day 0. On day 1, 1 μM of each compound (OAC1, OAC2, and OAC3) was added to the 4F-transduced OG2 MEFs. Treatment was continued for 1 week. When iPSC colonies emerged, these colonies were picked for expansion on the irradiated MEF feeders in mouse ESC medium.

luciferase = luciferase (Photinus pyralis, UniProt P08659); conditions: read-out: EC50 of luciferase inhibition; at 40° C., loss of enzymatic activity as measurement; cited from earlier work
luciferase, sequence (P08659 whole entry): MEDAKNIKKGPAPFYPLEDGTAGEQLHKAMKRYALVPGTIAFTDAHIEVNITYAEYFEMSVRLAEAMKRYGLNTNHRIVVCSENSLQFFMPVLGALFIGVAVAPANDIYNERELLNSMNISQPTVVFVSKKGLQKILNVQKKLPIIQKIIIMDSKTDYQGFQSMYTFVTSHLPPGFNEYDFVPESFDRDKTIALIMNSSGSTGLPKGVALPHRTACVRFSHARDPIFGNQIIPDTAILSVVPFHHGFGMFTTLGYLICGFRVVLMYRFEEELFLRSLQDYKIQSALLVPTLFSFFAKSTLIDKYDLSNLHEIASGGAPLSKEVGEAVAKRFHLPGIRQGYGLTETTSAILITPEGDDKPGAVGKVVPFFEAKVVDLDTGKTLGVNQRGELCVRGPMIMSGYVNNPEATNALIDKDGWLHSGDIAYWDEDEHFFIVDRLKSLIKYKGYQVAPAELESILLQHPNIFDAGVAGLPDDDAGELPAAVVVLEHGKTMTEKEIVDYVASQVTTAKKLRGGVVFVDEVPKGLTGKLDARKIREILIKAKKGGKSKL

O=C(Nc1cc2cc[nH]c2cn1)c1ccccc1 [OAC1, N-(1H-6-azaindol-5-yl)benzamide]
advance of the appearance of putative iPSC colonies compared to 4F only reprogramming ([1]; 4F+OAC): about three to four
Colony numbers ([1]; MEFs in mouse ESC media, OSKM, seeding 3 × 10^4, day 18, 1 μM compound): 130
Reprogramming efficiency ([1]; MEFs in mouse ESC media, OSKM, seeding 3 × 10^4, day 18, colony numbers divided by seeding cell numbers): 0.43%
Colony numbers (OG2 MEFs; MEFs in iSF1 media, OSKM, seeding 3 × 10^4, day 8, 1 μM compound): 800
Reprogramming efficiency (OG2 MEFs; MEFs in iSF1 media, OSKM, seeding 3 × 10^4, day 8, colony numbers divided by seeding cell numbers): 2.75%
day at which GFP+ colonies started to appear (OG2 MEFs; iSF1 media, 4F+compound, days after transfer to iSF1 media): 3 days
increase in the number of GFP-positive colonies compared to vehicle-treated 4F-transduced cells (OG2 MEFs; iSF1 media, day 5): more than 3 fold
number of GFP-positive colonies (average) (OG2 MEFs; iSF1 media, day 5): 350
reprogramming efficiency of 4F+compound relative to 4F alone in the initial Yamanaka study (OG2 MEFs; not a direct comparison): more than 20 fold
EC50 (luciferase): 6.37 µM
